According to patent publication EP4745135A1 (Gluetacs Therapeutics (Shanghai) Co., Ltd., priority 2023, dated 2025):

What was measured:
[1] = tested on: Human multiple myeloma cell (MM.1S); experiment: Tumor cell proliferation inhibition (CellTiter-Meiluncell luminescent cell viability assay); conditions: for inhibition at 0.01 µM: read-out: Inhibition Rate at 10 nM (%)
[2] = target: T1, human Cereblon WT GST-tagged protein (Homo sapiens, UniProt Q96SW2); experiment: CRBN-binding affinity, HTRF (CEREBLON BINDING kit); conditions: for inhibition at 0.5 µM: read-out: Inhibition Rate at 0.5 µM (%); for inhibition at 2 µM: read-out: Inhibition Rate at 2 µM (%)
T1 construct: purchased CISBIO 64BDCRBNPEH
T1 sequence (Q96SW2 whole entry): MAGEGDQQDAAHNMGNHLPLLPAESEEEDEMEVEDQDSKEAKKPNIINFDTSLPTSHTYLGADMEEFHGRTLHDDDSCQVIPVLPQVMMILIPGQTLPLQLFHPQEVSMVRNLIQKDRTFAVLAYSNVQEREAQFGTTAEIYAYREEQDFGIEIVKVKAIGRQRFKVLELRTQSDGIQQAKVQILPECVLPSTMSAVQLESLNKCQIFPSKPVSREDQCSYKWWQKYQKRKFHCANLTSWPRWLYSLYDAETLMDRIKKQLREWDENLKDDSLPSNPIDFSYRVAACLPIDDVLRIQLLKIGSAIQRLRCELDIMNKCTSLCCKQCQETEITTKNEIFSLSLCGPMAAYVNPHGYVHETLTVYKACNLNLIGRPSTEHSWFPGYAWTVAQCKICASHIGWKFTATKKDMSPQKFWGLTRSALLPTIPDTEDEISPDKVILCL

[3] = tested on: Human myeloid monocytic leukemia cell (MV-4-11); experiment: Tumor cell proliferation inhibition (CellTiter-Meiluncell luminescent cell viability assay); conditions: MV4-11, 96 h; for inhibition at 0.01 µM: read-out: Inhibition Rate at 10 nM (%); for inhibition at 0.5 µM: read-out: Inhibition Rate at 500 nM (%)
GSPT1 = experiment: Western blot, degradation of substrate protein in hPBMCs; format: cell-based, Human
IKZF2 = target: T2, IKZF2 (Homo sapiens, UniProt Q96SW2+Q9UKS7); experiment: as above; format: cell-based
T2 construct: effects of the compounds of the present disclosure on the expression of target proteins in cells; endogenous in cells; host or cells: human PBMCs (Milecell Biotechnologies)
T2 sequence (Q9UKS7 whole entry): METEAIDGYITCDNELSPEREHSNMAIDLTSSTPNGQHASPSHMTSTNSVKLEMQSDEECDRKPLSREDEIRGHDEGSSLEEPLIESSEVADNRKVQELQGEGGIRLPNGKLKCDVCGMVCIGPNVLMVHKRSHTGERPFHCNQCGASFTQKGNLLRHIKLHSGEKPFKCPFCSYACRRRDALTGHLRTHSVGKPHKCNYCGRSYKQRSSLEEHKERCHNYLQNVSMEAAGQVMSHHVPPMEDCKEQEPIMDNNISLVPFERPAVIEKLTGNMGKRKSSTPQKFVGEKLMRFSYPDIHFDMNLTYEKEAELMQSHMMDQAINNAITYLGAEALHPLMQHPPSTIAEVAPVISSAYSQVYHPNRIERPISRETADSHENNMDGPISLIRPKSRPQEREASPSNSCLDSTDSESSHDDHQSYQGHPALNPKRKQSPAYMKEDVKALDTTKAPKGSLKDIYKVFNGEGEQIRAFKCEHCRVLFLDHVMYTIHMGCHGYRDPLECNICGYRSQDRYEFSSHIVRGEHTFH
T2 sequence (Q96SW2 whole entry): as the sequence (Q96SW2 whole entry) above
T2 sequence (Q16531 whole entry partner): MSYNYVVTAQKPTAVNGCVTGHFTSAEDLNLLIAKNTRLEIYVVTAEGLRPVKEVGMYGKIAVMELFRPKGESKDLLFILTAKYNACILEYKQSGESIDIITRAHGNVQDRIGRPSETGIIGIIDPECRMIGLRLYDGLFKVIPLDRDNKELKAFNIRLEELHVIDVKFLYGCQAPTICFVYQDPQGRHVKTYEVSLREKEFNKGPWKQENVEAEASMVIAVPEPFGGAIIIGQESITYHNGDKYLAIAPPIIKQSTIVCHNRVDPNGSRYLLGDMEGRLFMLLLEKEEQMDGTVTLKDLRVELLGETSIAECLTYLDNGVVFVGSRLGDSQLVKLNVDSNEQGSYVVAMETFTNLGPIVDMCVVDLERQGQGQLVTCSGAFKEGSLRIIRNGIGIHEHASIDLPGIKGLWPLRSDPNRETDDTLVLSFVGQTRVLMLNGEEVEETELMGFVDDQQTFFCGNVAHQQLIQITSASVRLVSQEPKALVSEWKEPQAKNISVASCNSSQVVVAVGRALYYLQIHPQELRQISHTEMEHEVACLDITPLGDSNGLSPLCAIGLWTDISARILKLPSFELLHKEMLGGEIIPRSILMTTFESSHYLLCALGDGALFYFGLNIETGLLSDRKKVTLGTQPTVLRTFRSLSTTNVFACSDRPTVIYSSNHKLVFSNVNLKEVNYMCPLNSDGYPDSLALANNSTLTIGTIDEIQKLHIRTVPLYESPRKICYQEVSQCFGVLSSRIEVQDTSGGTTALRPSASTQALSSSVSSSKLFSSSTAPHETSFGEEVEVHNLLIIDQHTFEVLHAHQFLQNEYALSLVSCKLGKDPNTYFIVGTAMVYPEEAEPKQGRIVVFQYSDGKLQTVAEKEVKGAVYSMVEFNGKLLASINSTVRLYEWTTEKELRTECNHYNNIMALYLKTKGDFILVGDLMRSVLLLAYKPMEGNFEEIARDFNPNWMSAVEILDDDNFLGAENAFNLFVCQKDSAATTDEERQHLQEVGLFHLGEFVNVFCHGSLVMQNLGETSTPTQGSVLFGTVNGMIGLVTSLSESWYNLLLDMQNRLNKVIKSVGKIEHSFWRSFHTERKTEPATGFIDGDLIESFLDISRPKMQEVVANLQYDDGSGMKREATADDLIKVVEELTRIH

IKZF3 = target: T3, IKZF3 (Homo sapiens, UniProt Q96SW2+Q9UKT9); experiment: as above; format: cell-based
T3 construct: effects of the compounds of the present disclosure on the expression of target proteins in cells; endogenous in cells; host or cells: human PBMCs (Milecell Biotechnologies)
T3 sequence (Q9UKT9 whole entry): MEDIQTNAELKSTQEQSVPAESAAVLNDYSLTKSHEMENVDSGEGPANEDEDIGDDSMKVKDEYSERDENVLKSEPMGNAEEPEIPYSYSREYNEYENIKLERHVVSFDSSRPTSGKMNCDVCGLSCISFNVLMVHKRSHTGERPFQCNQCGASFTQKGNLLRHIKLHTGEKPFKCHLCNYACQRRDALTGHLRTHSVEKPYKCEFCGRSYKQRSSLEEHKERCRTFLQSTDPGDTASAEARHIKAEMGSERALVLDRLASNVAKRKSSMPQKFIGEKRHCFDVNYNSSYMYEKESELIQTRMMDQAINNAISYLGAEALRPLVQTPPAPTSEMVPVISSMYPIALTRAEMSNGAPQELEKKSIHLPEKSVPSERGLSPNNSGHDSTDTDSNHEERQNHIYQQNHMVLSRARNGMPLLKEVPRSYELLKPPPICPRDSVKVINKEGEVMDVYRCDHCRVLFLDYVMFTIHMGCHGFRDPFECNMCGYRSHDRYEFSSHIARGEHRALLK
T3 sequence (Q96SW2 whole entry): as the sequence (Q96SW2 whole entry) above
T3 sequence (Q16531 whole entry partner): as the sequence (Q16531 whole entry partner) above

WEE1 = target: T4, WEE1 (Homo sapiens, UniProt P30291+Q96SW2); experiment: as above; format: cell-based
T4 construct: effects of the compounds of the present disclosure on the expression of target proteins in cells; endogenous in cells; host or cells: human PBMCs (Milecell Biotechnologies)
T4 sequence (P30291 whole entry): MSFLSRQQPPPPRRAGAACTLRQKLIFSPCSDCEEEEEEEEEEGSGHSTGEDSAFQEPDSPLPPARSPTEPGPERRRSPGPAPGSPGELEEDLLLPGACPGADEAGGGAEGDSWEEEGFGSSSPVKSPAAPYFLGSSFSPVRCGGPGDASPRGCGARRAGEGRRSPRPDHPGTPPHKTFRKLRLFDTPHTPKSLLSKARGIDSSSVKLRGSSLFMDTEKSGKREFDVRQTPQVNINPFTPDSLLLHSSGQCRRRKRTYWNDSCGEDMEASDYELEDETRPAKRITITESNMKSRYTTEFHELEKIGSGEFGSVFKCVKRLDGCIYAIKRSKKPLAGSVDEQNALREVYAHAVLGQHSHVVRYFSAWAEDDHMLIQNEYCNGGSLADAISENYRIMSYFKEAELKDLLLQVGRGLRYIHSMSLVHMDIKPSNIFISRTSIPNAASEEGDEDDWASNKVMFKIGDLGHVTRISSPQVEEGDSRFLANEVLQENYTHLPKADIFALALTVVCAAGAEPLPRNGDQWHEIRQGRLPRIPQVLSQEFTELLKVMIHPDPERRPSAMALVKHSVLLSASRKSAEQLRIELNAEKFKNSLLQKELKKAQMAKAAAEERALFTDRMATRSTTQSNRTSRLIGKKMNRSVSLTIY
T4 sequence (Q96SW2 whole entry): as the sequence (Q96SW2 whole entry) above
T4 sequence (Q16531 whole entry partner): as the sequence (Q16531 whole entry partner) above

IKZF1 = target: T5, IKZF1 (Homo sapiens, UniProt Q13422+Q96SW2); experiment: as above; format: cell-based
T5 construct: effects of the compounds of the present disclosure on the expression of target proteins in cells; endogenous in cells; host or cells: human PBMCs (Milecell Biotechnologies)
T5 sequence (Q13422 whole entry): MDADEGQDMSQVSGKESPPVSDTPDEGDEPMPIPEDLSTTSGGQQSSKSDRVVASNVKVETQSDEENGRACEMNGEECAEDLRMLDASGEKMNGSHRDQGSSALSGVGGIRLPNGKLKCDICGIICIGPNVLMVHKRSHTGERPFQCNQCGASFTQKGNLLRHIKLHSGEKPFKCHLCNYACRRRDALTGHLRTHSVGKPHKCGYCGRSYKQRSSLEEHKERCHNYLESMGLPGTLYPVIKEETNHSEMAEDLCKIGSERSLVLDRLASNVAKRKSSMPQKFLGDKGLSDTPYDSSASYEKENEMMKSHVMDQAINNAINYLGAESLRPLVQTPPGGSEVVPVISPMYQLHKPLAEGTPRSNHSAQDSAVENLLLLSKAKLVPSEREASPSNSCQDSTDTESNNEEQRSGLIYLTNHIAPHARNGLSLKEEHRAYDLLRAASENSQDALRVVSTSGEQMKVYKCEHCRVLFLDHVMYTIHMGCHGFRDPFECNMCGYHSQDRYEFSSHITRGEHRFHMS
T5 sequence (Q96SW2 whole entry): as the sequence (Q96SW2 whole entry) above
T5 sequence (Q16531 whole entry partner): as the sequence (Q16531 whole entry partner) above

CK1α = target: T6, CK1α (Homo sapiens, UniProt P48729+Q96SW2); experiment: as above; format: cell-based
T6 construct: effects of the compounds of the present disclosure on the expression of target proteins in cells; endogenous in cells; host or cells: human PBMCs (Milecell Biotechnologies)
T6 sequence (P48729 whole entry): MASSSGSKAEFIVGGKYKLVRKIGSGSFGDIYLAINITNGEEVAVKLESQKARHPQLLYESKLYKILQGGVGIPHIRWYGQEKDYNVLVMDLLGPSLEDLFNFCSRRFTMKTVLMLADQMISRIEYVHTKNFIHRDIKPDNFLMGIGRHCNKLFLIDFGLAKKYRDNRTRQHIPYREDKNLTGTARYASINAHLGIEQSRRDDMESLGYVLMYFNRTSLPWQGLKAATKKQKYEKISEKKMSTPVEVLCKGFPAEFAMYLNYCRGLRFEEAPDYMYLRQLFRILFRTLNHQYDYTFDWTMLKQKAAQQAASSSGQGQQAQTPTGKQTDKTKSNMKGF
T6 sequence (Q96SW2 whole entry): as the sequence (Q96SW2 whole entry) above
T6 sequence (Q16531 whole entry partner): as the sequence (Q16531 whole entry partner) above

[4] = 24 hours treatment, compounds at 50 nM and 500 nM (concentration behind the class not stated)
[5] = Western blot, 24 hours of compound treatment, compounds tested at 50 nM and 500 nM (concentration for the table not stated)

SMILES | inhibition at 0.01 µM ([1]; Homo sapiens, MM1.S, 96 h) | inhibition at 0.5 µM ([1]; Homo sapiens, MM1.S, 96 h, read-out: Inhibition Rate at 500 nM (%)) | inhibition at 0.5 µM [2] | inhibition at 2 µM [2] | inhibition at 0.01 µM [3] | inhibition at 0.5 µM [3] | GSPT1 substrate protein remaining % (GSPT1; [4]) | IKZF2 substrate protein remaining % (IKZF2; [4]) | IKZF3 substrate protein remaining % (IKZF3; [4]) | Wee1 substrate protein remaining % (WEE1; [4]) | IKZF 1 substrate protein remaining % (IKZF1; [4]) | CK1α substrate protein remaining % (CK1α; [4]) | GSPT1 substrate protein remaining % (GSPT1; [5]) | IKZF2 substrate protein remaining % (IKZF2; [5]) | IKZF3 substrate protein remaining % (IKZF3; [5]) | Wee1 substrate protein remaining % (WEE1; [5]) | IKZF 1 substrate protein remaining % (IKZF1; [5]) | CK1α substrate protein remaining % (CK1α; [5]) | Inhibition Rate at 500 nM (%) ([1]; MM.1S, 500 nM, 96 hours)
O=C1CCC(N2Cc3c(CN4CC=C(c5cccc6c(F)cccc56)CC4)cccc3C2=S)C(=O)N1 (centres unmarked) [GT-08856, 3-(4-((4-(5-fluoronaphthalen-1-yl)-3,6-dihydropyridin-1(2H)-yl)methyl)-1-thioxoisoindolin-2-yl)piperidine-2,6-dione] | 20 to 30% | 40 to 50% | 30 to 40% | 53 to 60% | 40 to 60% | 40 to 60% | – | – | – | – | – | – | – | – | – | – | – | – | –
O=C1CCC(N2Cc3c(CN4CCC(c5ccco5)CC4)cccc3C2=S)C(=O)N1 (centres unmarked) [GT-08310, 3-(4-((4-(furan-2-yl)piperidin-1-yl)methyl)-1-thioxoisoindolin-2-yl)piperidine-2,6-dione] | – | – | 30 to 40% | 60 to 80% | 40 to 60% | 60 to 80% | B (80%< substrate protein remaining %≤ 100%) | B (80%< substrate protein remaining %≤ 100%) | B (80%< substrate protein remaining %≤ 100%) | A (0% ≤ substrate protein remaining % ≤ 80%) | B (80%< substrate protein remaining %≤ 100%) | B (80%< substrate protein remaining %≤ 100%) | – | – | – | – | – | – | –
Cc1cc(C2CCN(Cc3cccc4c3CN(C3CCC(=O)NC3=O)C4=S)CC2)cs1 (centres unmarked) [GT-08316, 3-(4-((4-(5-methylthiophen-3-yl)piperidin-1-yl)methyl)-1-thioxoisoindolin-2-yl)piperidine-2,6-dione] | – | – | 40 to 53% | 60 to 80% | 18 to 25% | 40 to 60% | B (80%< substrate protein remaining %≤ 100%) | B (80%< substrate protein remaining %≤ 100%) | B (80%< substrate protein remaining %≤ 100%) | A (0% ≤ substrate protein remaining % ≤ 80%) | B (80%< substrate protein remaining %≤ 100%) | B (80%< substrate protein remaining %≤ 100%) | – | – | – | – | – | – | –
O=C1CCC(N2Cc3cc(CN4CCN(c5ncccc5F)CC4)ccc3C2=S)C(=O)N1 (centres unmarked) [GT-09220, 3-(5-((4-(3-fluoropyridin-2-yl)piperazin-1-yl)methyl)-1-thioxoisoindolin-2-yl)piperidine-2,6-dione] | – | – | 60 to 80% | 80 to 100% | 30 to 40% | 40 to 60% | – | – | – | – | – | – | B (80%< substrate protein remaining %≤ 100%) | A (0% ≤ substrate protein remaining % ≤ 80%) | B (80%< substrate protein remaining %≤ 100%) | A (0% ≤ substrate protein remaining % ≤ 80%) | A (0% ≤ substrate protein remaining % ≤ 80%) | B (80%< substrate protein remaining %≤ 100%) | –
O=C1CCC(N2Cc3c(CN4CCN(c5ccc(Cl)cc5Cl)CC4)cccc3C2=S)C(=O)N1 (centres unmarked) [GT-08500, 3-(4-((4-(2,4-dichlorophenyl)piperazin-1-yl)methyl)-1-thioxoisoindolin-2-yl)piperidine-2,6-dione] | – | – | 40 to 53% | 60 to 80% | 30 to 40% | 40 to 60% | – | – | – | – | – | – | A (0% ≤ substrate protein remaining % ≤ 80%) | B (80%< substrate protein remaining %≤ 100%) | B (80%< substrate protein remaining %≤ 100%) | A (0% ≤ substrate protein remaining % ≤ 80%) | B (80%< substrate protein remaining %≤ 100%) | B (80%< substrate protein remaining %≤ 100%) | –
Cc1cccc(N2CCN(Cc3ccc4c(c3)CN(C3CCC(=O)NC3=O)C4=S)CC2)n1 (centres unmarked) [GT-09214, 3-(5-((4-(6-methylpyridin-2-yl)piperazin-1-yl)methyl)-1-thioxoisoindolin-2-yl)piperidine-2,6-dione] | – | – | 60 to 80% | 80 to 100% | 10 to 18% | 40 to 60% | – | – | – | – | – | – | A (0% ≤ substrate protein remaining % ≤ 80%) | B (80%< substrate protein remaining %≤ 100%) | B (80%< substrate protein remaining %≤ 100%) | B (80%< substrate protein remaining %≤ 100%) | B (80%< substrate protein remaining %≤ 100%) | B (80%< substrate protein remaining %≤ 100%) | –
O=C1CCC(N2Cc3c(CN4CCC(c5c[nH]c6cc(F)ccc56)CC4)cccc3C2=S)C(=O)N1 (centres unmarked) [GT-08492, 3-(4-((4-(6-fluoro-1H-indol-3-yl)piperidin-1-yl)methyl)-1-thioxoisoindolin-2-yl)piperidine-2,6-dione] | – | – | 60 to 80% | 80 to 100% | 30 to 40% | 40 to 60% | – | – | – | – | – | – | B (80%< substrate protein remaining %≤ 100%) | B (80%< substrate protein remaining %≤ 100%) | B (80%< substrate protein remaining %≤ 100%) | A (0% ≤ substrate protein remaining % ≤ 80%) | B (80%< substrate protein remaining %≤ 100%) | B (80%< substrate protein remaining %≤ 100%) | –
Cc1ccsc1C1CCN(Cc2cccc3c2CN(C2CCC(=O)NC2=O)C3=S)CC1 (centres unmarked) [GT-08314, 3-(4-((4-(3-methylthiophen-2-yl)piperidin-1-yl)methyl)-1-thioxoisoindolin-2-yl)piperidine-2,6-dione] | – | – | 40 to 53% | 60 to 80% | 40 to 60% | 60 to 80% | B (80%< substrate protein remaining %≤ 100%) | B (80%< substrate protein remaining %≤ 100%) | B (80%< substrate protein remaining %≤ 100%) | A (0% ≤ substrate protein remaining % ≤ 80%) | B (80%< substrate protein remaining %≤ 100%) | B (80%< substrate protein remaining %≤ 100%) | – | – | – | – | – | – | –
O=C1CCC(N2Cc3cc(CN4CCN(c5cncc(Cl)c5Cl)CC4)ccc3C2=S)C(=O)N1 (centres unmarked) [GT-09231, 3-(5-((4-(4,5-dichloropyridin-3-yl)piperazin-1-yl)methyl)-1-thioxoisoindolin-2-yl)piperidine-2,6-dione] | – | – | 60 to 80% | 80 to 100% | 30 to 40% | 40 to 60% | – | – | – | – | – | – | A (0% ≤ substrate protein remaining % ≤ 80%) | A (0% ≤ substrate protein remaining % ≤ 80%) | A (0% ≤ substrate protein remaining % ≤ 80%) | B (80%< substrate protein remaining %≤ 100%) | A (0% ≤ substrate protein remaining % ≤ 80%) | A (0% ≤ substrate protein remaining % ≤ 80%) | –
O=C1CCC(N2Cc3cc(CN4CCN(c5c(F)c(F)nc(F)c5F)CC4)ccc3C2=S)C(=O)N1 (centres unmarked) [GT-09250, 3-(5-((4-(perfluoropyridin-4-yl)piperazin-1-yl)methyl)-1-thioxoisoindolin-2-yl)piperidine-2,6-dione] | 30 to 40% | – | 60 to 80% | 80 to 100% | 30 to 40% | 40 to 60% | – | – | – | – | – | – | – | – | – | – | – | – | la7
